Experimental data as given in ChEMBL document CHEMBL1158870, “Antitumor agents. 180. Chemical Studies and cytotoxic evaluation of cumingianosides and cumindysoside A, antileukemic triterpene glucosides with a 14,18-cycloapotirucallane skeleton” (1997).

How the values were obtained:
[1] = system: HOP-92; assay: Cytotoxicity against human HOP92 cells by SRB assay; type: functional
[2] = system: NCI-H226; assay: Cytotoxicity against human NCI-H226 cells by SRB assay; type: functional
[3] = system: UACC-62; assay: Cytotoxicity against human UACC62 cells by SRB assay; type: functional
[4] = system: OVCAR-3; assay: Cytotoxicity against human OVCAR-3 cells by SRB assay; type: functional
[5] = system: CAKI-1; assay: Cytotoxicity against human Caki1 cells by SRB assay; type: functional
[6] = system: EKVX; assay: Cytotoxicity against human EKVX cells by SRB assay; type: functional
[7] = Cytotoxicity against human Hs 578T cells by SRB assay; type: functional
[8] = system: LOX IMVI; assay: Cytotoxicity against human LOXIMVI cells by SRB assay; type: functional
[9] = system: SN12C; assay: Cytotoxicity against human SN12C cells by SRB assay; type: functional
[10] = system: IGROV-1; assay: Cytotoxicity against human IGROV1 cells by SRB assay; type: functional
[11] = system: M14; assay: Cytotoxicity against human M14 cells by SRB assay; type: functional
[12] = system: MOLT-4; assay: Cytotoxicity against human MOLT4 cells by SRB assay; type: functional
[13] = Cytotoxicity against human HL60(TB) cells by SRB assay; type: functional, HL-60(TB); conditions: HL-60
[14] = system: KM12; assay: Cytotoxicity against human KM12 cells by SRB assay; type: functional
[15] = system: MDA-MB-231; assay: Cytotoxicity against human MDA-MB-231 cells by SRB assay; type: functional
[16] = Cytotoxicity against human MCF7/ADR cells by SRB assay; type: functional; conditions: NCI/ADR-RES
[17] = system: K562; assay: Cytotoxicity against human K562 cells by SRB assay; type: functional
[18] = system: HCC 2998; assay: Cytotoxicity against human HCC2998 cells by SRB assay; type: functional
[19] = system: SR; assay: Cytotoxicity against human SR cells by SRB assay; type: functional
[20] = system: HCT-15; assay: Cytotoxicity against human HCT15 cells by SRB assay; type: functional
[21] = system: SF-295; assay: Cytotoxicity against human SF295 cells by SRB assay; type: functional
[22] = Cytotoxicity against human CNS cancer cells by SRB assay; type: functional; conditions: Cancer cell lines
[23] = system: NCI-H522; assay: Cytotoxicity against human NCI-H522 cells by SRB assay; type: functional
[24] = system: NCI-H23; assay: Cytotoxicity against human NCI-H23 cells by SRB assay; type: functional
[25] = system: COLO 205; assay: Cytotoxicity against human COLO205 cells by SRB assay; type: functional
[26] = system: A549; assay: Cytotoxicity against human A549 cells by SRB assay; type: functional
[27] = system: SNB-75; assay: Cytotoxicity against human SNB75 cells by SRB assay; type: functional
[28] = system: SK-MEL-5; assay: Cytotoxicity against human SK-MEL-5 cells by SRB assay; type: functional
[29] = system: SW-620; assay: Cytotoxicity against human SW620 cells by SRB assay; type: functional
[30] = system: OVCAR-8; assay: Cytotoxicity against human OVCAR8 cells by SRB assay; type: functional
[31] = system: SK-MEL-2; assay: Cytotoxicity against human SK-MEL-2 cells by SRB assay; type: functional
[32] = system: NSCLC; assay: Cytotoxicity against human NSCLC cells by SRB assay; type: functional
[33] = system: PC-3; assay: Cytotoxicity against human PC3 cells by SRB assay; type: functional
[34] = system: MDA-MB-435; assay: Cytotoxicity against human MDA-MB-435 cells by SRB assay; type: functional
[35] = system: Leukemia cell; assay: Cytotoxicity against human Leukemia cells by SRB assay; type: functional
[36] = system: HT-29; assay: Cytotoxicity against human HT29 cells by SRB assay; type: functional
[37] = system: HCT-116; assay: Cytotoxicity against human HCT116 cells by SRB assay; type: functional
[38] = system: BT-549; assay: Cytotoxicity against human BT549 cells by SRB assay; type: functional
[39] = system: SF-268; assay: Cytotoxicity against human SF268 cells by SRB assay; type: functional
[40] = system: SNB-19; assay: Cytotoxicity against human SNB19 cells by SRB assay; type: functional
[41] = system: MDA-N; assay: Cytotoxicity against human MDA-N cells by SRB assay; type: functional
[42] = system: ACHN; assay: Cytotoxicity against human ACHN cells by SRB assay; type: functional
[43] = system: NCI-H460; assay: Cytotoxicity against human NCI-H460 cells by SRB assay; type: functional
[44] = system: T47D; assay: Cytotoxicity against human T47D cells by SRB assay; type: functional
[45] = system: OVCAR-4; assay: Cytotoxicity against human OVCAR4 cells by SRB assay; type: functional
[46] = Cytotoxicity against human renal cancer cells by SRB assay; type: functional; conditions: Cancer cell lines
[47] = Cytotoxicity against human melanoma cells by SRB assay; type: functional; conditions: Melanoma cell
[48] = Cytotoxicity against human breast cancer cells by SRB assay; type: functional; conditions: Cancer cell lines
[49] = system: Malme-3M; assay: Cytotoxicity against human MALME-3M cells by SRB assay; type: functional
[50] = system: NCI-H322M; assay: Cytotoxicity against human NCI-H322M cells by SRB assay; type: functional
[51] = system: UACC-257; assay: Cytotoxicity against human UACC257 cells by SRB assay; type: functional
[52] = Cytotoxicity against human prostate cancer cells by SRB assay; type: functional; conditions: Cancer cell lines
[53] = system: SK-MEL-28; assay: Cytotoxicity against human SK-MEL-28 cells by SRB assay; type: functional
[54] = system: DU-145; assay: Cytotoxicity against human DU145 cells by SRB assay; type: functional
[55] = system: U-251; assay: Cytotoxicity against human U251 cells by SRB assay; type: functional
[56] = system: A498; assay: Cytotoxicity against human A498 cells by SRB assay; type: functional
[57] = system: RXF 393; assay: Cytotoxicity against human RXF393 cells by SRB assay; type: functional
[58] = system: HOP-62; assay: Cytotoxicity against human HOP62 cells by SRB assay; type: functional
[59] = system: UO-31; assay: Cytotoxicity against human UO31 cells by SRB assay; type: functional
[60] = Cytotoxicity against human Colon cancer cells by SRB assay; type: functional; conditions: Cancer cell lines
[61] = system: OVCAR-5; assay: Cytotoxicity against human OVCAR5 cells by SRB assay; type: functional
[62] = system: CCRF-CEM; assay: Cytotoxicity against human CCRF-CEM cells by SRB assay; type: functional
[63] = system: RPMI-8226; assay: Cytotoxicity against human RPMI8226 cells by SRB assay; type: functional
[64] = system: MCF7; assay: Cytotoxicity against human MCF7 cells by SRB assay; type: functional
[65] = Cytotoxicity against human 786-O cells by SRB assay; type: functional; conditions: 786-0
[66] = Cytotoxicity against human ovarian cancer cells by SRB assay; type: functional; conditions: Cancer cell lines
[67] = system: SK-OV-3; assay: Cytotoxicity against human SKOV3 cells by SRB assay; type: functional

Question: What does the source list for `COC(C)(C)[C@@H](O)[C@H]1C[C@H](C)[C@@]2(CC[C@]3(C)[C@@H]2CC[C@@H]2[C@@]4(C)CC[C@@H](OC(C)=O)C(C)(C)[C@@H]4C[C@@H](O[C@@H]4O[C@H](COC(C)=O)[C@@H](O)[C@H](O)[C@H]4O)[C@]23C)O1`?
Answer: GI50 [1]: 12.9 µM; GI50 [2]: 4.79 µM; GI50 [3]: 5.25 µM; GI50 [4]: 4.79 µM; GI50 [5]: 5.37 µM; GI50 [6]: 5.5 µM; GI50 [7]: 4.07 µM; GI50 [8]: 4.79 µM; GI50 [9]: 4.17 µM; GI50 [10]: 4.37 µM; GI50 [11]: 4.47 µM; GI50 [12]: 2.29 µM; GI50 [13]: 2.34 µM; GI50 [14]: 1.32 µM; TGI [14]: 2 µM; GI50 [15]: 11 µM; GI50 [16]: 7.41 µM; GI50 [17]: 3.09 µM; GI50 [18]: 0.204 µM; TGI [18]: 1.8 µM; GI50 [19]: 2.19 µM; GI50 [20]: 2.4 µM; TGI [20]: 5.6 µM; GI50 [21]: 4.37 µM; TGI [22]: 18.7 µM; GI50 [23]: 4.57 µM; GI50 [24]: 9.33 µM; GI50 [25]: 2.14 µM; TGI [25]: 4.7 µM; GI50 [26]: 3.89 µM; GI50 [27]: 3.55 µM; GI50 [28]: 8.32 µM; GI50 [29]: 6.46 µM; TGI [29]: 19.8 µM; GI50 [30]: 5.25 µM; GI50 [31]: 6.17 µM; TGI [32]: 17.8 µM; GI50 [33]: 2.82 µM; GI50 [34]: 3.63 µM; TGI [35]: 32.1 µM; GI50 [36]: 1.86 µM; TGI [36]: 4 µM; GI50 [37]: 2.69 µM; TGI [37]: 10 µM; GI50 [38]: 12.6 µM; GI50 [39]: 6.03 µM; GI50 [40]: 10 µM; GI50 [41]: 5.25 µM; GI50 [42]: 5.25 µM; GI50 [43]: 3.8 µM; GI50 [44]: 4.17 µM; GI50 [45]: 2.95 µM; TGI [46]: 17.9 µM; TGI [47]: 20.2 µM; TGI [48]: 18.6 µM; GI50 [49]: 11.2 µM; GI50 [50]: 1.91 µM; GI50 [51]: 5.89 µM; TGI [52]: 13.1 µM; GI50 [53]: 6.31 µM; GI50 [54]: 4.47 µM; GI50 [55]: 5.37 µM; GI50 [56]: 13.2 µM; GI50 [57]: 3.16 µM; GI50 [58]: 11.5 µM; GI50 [59]: 5.25 µM; TGI [60]: 6.9 µM; GI50 [61]: 3.16 µM; GI50 [62]: 3.09 µM; GI50 [63]: 2.4 µM; GI50 [64]: 2.14 µM; GI50 [65]: 5.25 µM; TGI [66]: 15.8 µM; GI50 [67]: 4.79 µM

Question: Which results are given for `COC(C)(C)[C@@H](O)[C@H](O)C[C@H](C)C1=C2CC[C@@H]3[C@@]4(C)CC[C@@H](OC(C)=O)C(C)(C)[C@@H]4C[C@@H](O[C@@H]4O[C@H](COC(C)=O)[C@@H](O)[C@H](O)[C@H]4O)[C@@]3(C)[C@]2(C)CC1`?
Answer: GI50 [1]: 12.9 µM; GI50 [2]: 13.2 µM; GI50 [3]: 8.71 µM; GI50 [4]: 7.41 µM; GI50 [5]: 4.07 µM; GI50 [6]: 12.9 µM; GI50 [7]: 11.7 µM; GI50 [8]: 6.31 µM; GI50 [9]: 13.5 µM; GI50 [10]: 13.2 µM; GI50 [11]: 12.3 µM; GI50 [12]: 5.13 µM; GI50 [13]: 3.63 µM; GI50 [14]: 3.55 µM; TGI [14]: 18.9 µM; GI50 [15]: 11.5 µM; GI50 [16]: 15.1 µM; GI50 [17]: 6.03 µM; GI50 [18]: 3.98 µM; TGI [18]: 13.4 µM; GI50 [19]: 3.09 µM; GI50 [20]: 11 µM; TGI [20]: 23.8 µM; GI50 [21]: 11.5 µM; TGI [22]: 23.8 µM; GI50 [23]: 12.3 µM; GI50 [24]: 14.5 µM; GI50 [25]: 10.7 µM; TGI [25]: 22.8 µM; GI50 [26]: 7.76 µM; GI50 [27]: 3.89 µM; GI50 [28]: 14.5 µM; GI50 [29]: 15.8 µM; TGI [29]: 30.1 µM; GI50 [30]: 12.9 µM; GI50 [31]: 13.2 µM; TGI [32]: 25.6 µM; GI50 [33]: 5.62 µM; GI50 [34]: 12.3 µM; TGI [35]: 20.9 µM; GI50 [36]: 5.13 µM; TGI [36]: 16.9 µM; GI50 [37]: 6.03 µM; TGI [37]: 19.2 µM; GI50 [38]: 15.1 µM; GI50 [39]: 10.2 µM; GI50 [40]: 12.3 µM; GI50 [41]: 11.7 µM; GI50 [42]: 10.5 µM; GI50 [43]: 9.12 µM; GI50 [44]: 12.6 µM; GI50 [45]: 10.7 µM; TGI [46]: 23.6 µM; TGI [47]: 29.9 µM; TGI [48]: 24.8 µM; GI50 [49]: 15.1 µM; GI50 [50]: 12.9 µM; GI50 [51]: 12.6 µM; TGI [52]: 23.5 µM; GI50 [53]: 11.7 µM; GI50 [54]: 15.1 µM; GI50 [55]: 5.37 µM; GI50 [56]: 14.1 µM; GI50 [57]: 6.92 µM; GI50 [58]: 14.5 µM; GI50 [59]: 13.5 µM; TGI [60]: 20.7 µM; GI50 [61]: 14.8 µM; GI50 [62]: 5.37 µM; GI50 [63]: 4.17 µM; GI50 [64]: 2.63 µM; GI50 [65]: 14.5 µM; TGI [66]: 25.6 µM; GI50 [67]: 15.1 µM
